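96-well plates; 48 h exposure; 5 concentrations. Endpoints by linear interpolation between flanking doses. Not reached: highest tested concentration assigned. TGI: total growth inhibition.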
Experiments:
Assay in all cases: NCI-60 cell line screen, 48 h
[1] = system: SF-295 CNS
[2] = system: EKVX NSCLC
[3] = system: SF-539 CNS
[4] = system: BT-549 breast
[5] = system: MDA-MB-435
[6] = system: MDA-N
[7] = system: NCI-H460 lung
[8] = system: SN12C renal

Structure (SMILES)	TGI [1]	TGI [2]	TGI [3]	TGI [4]	TGI [5]	TGI [6]	TGI [7]	TGI [8]
N#C/C(=C\N1CCNC1=S)C(=O)c1ccc2ccccc2c1	> 100 µM	> 100 µM	> 100 µM	> 100 µM	> 100 µM	> 100 µM	> 100 µM	> 100 µM
CCCCCCCCCCCCCCCCCCNc1ccn(C2OC(COP(=O)(O)OCCCCCCCCCCCCCCCC)C(O)C2O)c(=O)n1 (stereo unspecified)	> 100 µM	> 100 µM	> 100 µM		> 100 µM			> 100 µM
CCOc1ccccc1N=NC1C(=O)N(C(=O)CC(=O)Nc2ccccc2Cl)N=C1C (stereo unspecified)	> 100 µM	80.9 µM	> 100 µM	> 100 µM	> 100 µM	> 100 µM	> 100 µM	> 100 µM
C=C(Cl)C(Br)(CCl)CCC(Cl)C(C)C (stereo unspecified) (tested in a mixture with another compound)	19.6 µM	29.6 µM	3.72 µM	3.19 µM	3.67 µM	3.45 µM	3.42 µM	3.08 µM
COc1cc(C(CN)N(C)C)cc(OC)c1OC (stereo unspecified)	> 100 µM	> 100 µM	> 100 µM	> 100 µM	> 100 µM	> 100 µM	> 100 µM	> 100 µM
Cn1c2nc(=Nc3ccc(Cl)cc3)n3ccc4ccccc4c3c2c(=O)n1-c1ccccc1	> 100 µM	> 100 µM		> 100 µM	> 100 µM	> 100 µM	> 100 µM	> 100 µM
COC(=O)[C@@H]1C[C@H]2[C@H](c3ccccc3Br)[C@@H](OC(C)=O)[C@@H](OCc3ccccc3)ON2O1	> 100 µM	> 100 µM	> 100 µM	> 100 µM	> 100 µM	> 100 µM	> 100 µM	> 100 µM
O=[N+]([O-])/C(Cl)=C(\Sc1ccccc1)C(Cl)=C(Cl)Cl	8.92 µM	3.9 µM	2.98 µM		0.453 µM	0.761 µM	3.22 µM	1.51 µM
Cn1cc(C=C(C#N)C#N)c(=O)n(C)c1=O	> 100 µM	> 100 µM	> 100 µM	> 100 µM	> 100 µM	> 100 µM	> 100 µM	> 100 µM
COC(=O)c1ccc(NCc2cc(O)c3ccccc3c2O)cc1	19.9 µM	48.7 µM	28.6 µM	30.7 µM	4.63 µM	3.98 µM	24.5 µM	40 µM
O=C(c1cccs1)N(C(=S)OCc1ccccn1)c1ccccc1	> 100 µM	70 µM	> 100 µM	> 100 µM	> 100 µM	> 100 µM	> 100 µM	> 100 µM
CCOC(=O)C1C(=O)CC(C)(O)C(C(=O)OCC)C1c1ccc(O)c(OC)c1 (stereo unspecified)	> 100 µM	> 100 µM		> 100 µM	> 100 µM	> 100 µM	> 100 µM	> 100 µM
CCCCNC(=O)C1=C(C)NC(C)=C(C(=O)NCCCC)C1	> 100 µM	> 100 µM	> 100 µM	> 100 µM	> 100 µM	> 100 µM	> 100 µM	> 100 µM
COC(=O)c1ccc(/C=N/c2cc(C)nn2-c2ccccc2)cc1	> 100 µM	> 100 µM	> 100 µM	> 100 µM	96.6 µM	> 100 µM	37.3 µM	> 100 µM
O=C(C1=CCC2(CC1)OCCO2)N(Cc1ccccc1)c1ccccc1I	51.8 µM	31.5 µM			50.7 µM	96.4 µM	46.4 µM	56 µM
CC(C)Nc1n[nH]c(=O)n1C(C)C	> 100 µM	> 100 µM	> 100 µM	> 100 µM	> 100 µM	> 100 µM	> 100 µM	> 100 µM
C[C@@H]1O[C@@H]2OCC[C@@H]2C2=C1C(=O)c1ccccc1C2=O	33 µM	39.9 µM	22.3 µM		3.69 µM	3.35 µM	31.9 µM	29.8 µM
CC(C)C(OC(=O)c1cc(NC(=S)c2ccccc2)ccc1Cl)C(C)C	> 84.7 µM	> 86.4 µM	65.5 µM	91.1 µM	> 100 µM	39.8 µM	47.4 µM	39.6 µM
COC(=O)c1c(C)cccc1C1CN=NC12Cc1c(C)cccc1C2=O (stereo unspecified)	> 100 µM	79.7 µM	> 100 µM	> 100 µM	> 100 µM	> 100 µM	> 100 µM	> 100 µM
COc1ccc(-n2c(C)nc3ccc(N=Cc4ccccc4)cc3c2=O)cc1	> 100 µM	> 100 µM		> 100 µM	> 100 µM	> 100 µM	> 100 µM	> 100 µM

Structure (SMILES)	TGI [1]	TGI [2]	TGI [3]	TGI [4]	TGI [5]	TGI [6]	TGI [7]	TGI [8]
COc1cccc(NC(=O)c2c(SC)n[nH]c2N)c1	> 100 µM	> 100 µM	> 100 µM	> 100 µM	> 100 µM	> 100 µM	> 100 µM	> 100 µM
Nc1nonc1-c1noc(-c2nonc2N)[n+]1[O-]	> 100 µM	82.8 µM		> 100 µM	> 100 µM	> 100 µM	> 100 µM	> 100 µM
Cc1ccc(-c2n[nH]c(=O)n2N)cc1	> 100 µM	> 100 µM	> 100 µM	> 100 µM	> 100 µM	> 100 µM	> 100 µM	> 100 µM
Clc1ccc(OCc2nnc(CCCCCCCCc3nnc(COc4ccc(Cl)cc4)o3)o2)cc1	> 100 µM	> 100 µM		> 100 µM	> 100 µM	> 100 µM	> 100 µM	> 100 µM
O=c1[nH]ncc2[nH]c3c(c12)CCCc1ccccc1-3	> 100 µM	51.7 µM	> 100 µM	> 100 µM	82.9 µM	98.8 µM	> 100 µM	> 100 µM
COc1ccc(C(F)(F)F)cc1NC(=O)O/N=C(/Cl)C(C)C	> 66.3 µM	33.6 µM	37 µM	41.3 µM	48.1 µM	32.4 µM	> 64.2 µM	32.2 µM
Cc1ccc(-c2n[nH]c(CC#N)n2)cc1	> 100 µM	> 100 µM	> 100 µM	> 100 µM	> 100 µM		> 100 µM	> 100 µM
S=c1scc(-c2ccc(Cl)cc2)n1OC1CCCC1	> 100 µM	> 100 µM	35.5 µM	94.7 µM	79.3 µM	> 100 µM	> 100 µM	> 100 µM
CCCCCCCCCCCCCC/C(=C/OCC[N+](C)(C)C)OC(C)=O (tested in a mixture with another compound)	5.34 µM	10.7 µM	5.88 µM	5.85 µM	7.49 µM	10 µM		12.5 µM
CCN(CC)CC1CCCCN1CC(=O)N1c2ccc(Br)cc2C(=O)Nc2cccnc21 (stereo unspecified)	> 100 µM	> 100 µM	> 100 µM		> 100 µM	> 100 µM	> 100 µM	> 100 µM
CNC(=O)OC(C)CN1c2ccccc2Sc2ccccc21 (stereo unspecified)	> 100 µM	> 100 µM	> 100 µM	> 100 µM	> 100 µM		> 100 µM	> 100 µM
CCOC(=O)c1c(SCC#N)n(-c2ccccc2)c(=S)n(-c2ccccc2)c1=O	> 100 µM	> 100 µM		> 100 µM	> 100 µM	> 100 µM	> 100 µM	> 100 µM
O=C(CCNC(=O)OCc1ccccc1)OCCCNC(=O)OCc1ccccc1	> 100 µM		> 100 µM	> 100 µM	> 100 µM	> 100 µM	> 100 µM	> 100 µM
CC(=O)NC1C(OCc2ccccc2)OC(CO)C(O)C1OCC(=O)NC(C)C(=O)NC(CCC(=O)OCCNC(=O)c1cccc2cc3ccccc3nc12)C(N)=O (stereo unspecified)	68.2 µM	62.2 µM		45.8 µM	42.4 µM	> 100 µM	57.8 µM	> 100 µM
O=c1oc2ccccc2c(O)c1C(c1ccc([N+](=O)[O-])cc1)c1c(O)c2ccccc2oc1=O		> 100 µM		> 100 µM	> 100 µM	> 100 µM	> 100 µM	> 100 µM
Cc1nnc2nc(-c3ccc(Cl)cc3Cl)cc(-c3ccc(Cl)cc3)n12	> 100 µM		> 100 µM	> 100 µM	> 100 µM	> 100 µM	> 100 µM	> 100 µM
N[C@H]1CCc2c1nc1c(c2-c2ccccc2)CC[C@@H]1N	45.5 µM	> 100 µM	31.1 µM	28.1 µM	30.2 µM		> 100 µM	> 100 µM
O=c1cc2oc3ccc4ccccc4c3cc-2c(=O)[nH]1	37.1 µM	33.8 µM	25 µM	11.2 µM	25 µM	23.8 µM	53.1 µM	
COc1ccc(/C=C/c2cc(=O)cc(/C=C/c3ccc(OC)c(O)c3)o2)cc1O	13.3 µM	13.3 µM	3.47 µM	10.3 µM			5.73 µM	> 33.6 µM

Reference: PubChem BioAssay (NCI)
